Experimental data reported in US9108921B2, “Therapeutic compounds and compositions” (AGIOS PHARMACEUTICALS, INC, priority 2014, dated 2015).

How the values were obtained:
PKR R532W = PKR R532W (Homo sapiens, UniProt P30613, R532W); assay: PKR Mutant Assay, AC50 against PKR R532W; type: biochemical; conditions: mutant PKR R532W enzyme
In short: (§1)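 Human PKR (WT or mutant, 80-400 ng/well) in 50 mM Tris pH 7.5, 100 mM KCl, 5 mM MgCl2, 1 mM DTT, 0.03% BSA with PEP 0.1-0.5 mM, NADH 180 uM and LDH, preincubated 60 min at room temperature with compound (11-point 3-fold series from 100 μM final, 1% DMSO). ADP 0.22-1.65 mM started reaction; A340 followed.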

PKR WT [1] = target: T1, PKR WT (Homo sapiens, UniProt P30613); assay: PKR WT cell based AC50 assay; conditions: wild type PKR
T1 sequence (P30613 whole entry): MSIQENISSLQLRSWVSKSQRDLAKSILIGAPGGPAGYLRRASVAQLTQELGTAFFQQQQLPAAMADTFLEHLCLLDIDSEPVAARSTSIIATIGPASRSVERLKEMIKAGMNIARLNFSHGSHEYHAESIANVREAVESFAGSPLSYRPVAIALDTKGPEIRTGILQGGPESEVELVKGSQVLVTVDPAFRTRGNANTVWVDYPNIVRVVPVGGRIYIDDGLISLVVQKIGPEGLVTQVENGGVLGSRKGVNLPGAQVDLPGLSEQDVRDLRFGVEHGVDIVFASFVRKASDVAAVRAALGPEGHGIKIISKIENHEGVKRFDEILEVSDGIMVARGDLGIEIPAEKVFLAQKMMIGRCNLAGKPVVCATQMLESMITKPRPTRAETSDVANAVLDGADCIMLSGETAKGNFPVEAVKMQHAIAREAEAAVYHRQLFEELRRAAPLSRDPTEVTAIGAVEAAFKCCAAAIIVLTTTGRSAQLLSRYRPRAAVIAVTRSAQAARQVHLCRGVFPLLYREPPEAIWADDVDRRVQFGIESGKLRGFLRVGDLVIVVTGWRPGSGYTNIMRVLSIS

PKR R510Q = PKR R510Q (Homo sapiens, UniProt P30613, R510Q); assay: PKR Mutant Assay, AC50 against PKR R510Q; type: biochemical; conditions: mutant PKR R510Q enzyme
PKR R510Q, sequence (P30613 whole entry R510Q): as the sequence (P30613 whole entry) above, with R510Q counted along it
In short: as §1

PKR WT [2] = target: T1, PKR WT; assay: PKR WT enzymatic AC50 assay; type: biochemical; conditions: wild type PKR
In short: as §1

PKR R532W, sequence (P30613 whole entry R532W): as the sequence (P30613 whole entry) above, with R532W counted along it

Row | AC50 (PKR R532W) | AC50 (PKR WT [1]) | AC50 (PKR R510Q) | AC50 (PKR WT [2]) | Structure (SMILES)
1 | < 0.1 µM | < 0.1 µM | 0.101 to 1 µM | < 0.1 µM | O=C(c1ccc(NS(=O)(=O)c2cccc3cccnc23)cc1)N1CCC(O)(c2ccncc2Cl)CC1 [Compound 161, N-(4-(4-(3-chloropyridin-4-yl)-4-hydroxypiperidine-1-carbonyl)phenyl)quinoline-8-sulfonamide]
2 | < 0.1 µM | < 0.1 µM | < 0.1 µM | < 0.1 µM | Nc1nc2c(S(=O)(=O)Nc3ccc(C(=O)N4CCC(O)(c5ccccc5Cl)CC4)cc3)cc(F)cc2s1 [Compound 154, 2-amino-N-(4-(4-(2-chlorophenyl)-4-hydroxypiperidine-1-carbonyl)phenyl)-6-fluorobenzo[d]thiazole-4-sulfonamide]
3 | < 0.1 µM | < 0.1 µM | < 0.1 µM | < 0.1 µM | COc1ccccc1CC1(O)CCN(C(=O)c2ccc(NS(=O)(=O)c3cccc4cccnc34)cc2)CC1 [Compound 116, N-(4-(4-hydroxy-4-(2-methoxybenzyl)piperidine-1-carbonyl)phenyl)quinoline-8-sulfonamide]
4 | < 0.1 µM | < 0.1 µM | < 0.1 µM | < 0.1 µM | O=C(c1ccc(NS(=O)(=O)c2cccc3cccnc23)cc1)N1CCC(O)(c2ccc(F)c(Br)n2)CC1 [Compound 133, N-(4-(4-(6-bromo-5-fluoropyridin-2-yl)-4-hydroxypiperidine-1-carbonyl)phenyl)quinoline-8-sulfonamide]
5 | < 0.1 µM | < 0.1 µM | < 0.1 µM | < 0.1 µM | CC(C)CC1(O)CCN(C(=O)c2ccc(NS(=O)(=O)c3cccc4scnc34)cc2)CC1 [Compound 173, N-(4-(4-hydroxy-4-isobutylpiperidine-1-carbonyl)phenyl)benzo[d]thiazole-4-sulfonamide]
6 | < 0.1 µM | < 0.1 µM | < 0.1 µM | < 0.1 µM | Cc1nc(F)ccc1C1(O)CCN(C(=O)c2ccc(NS(=O)(=O)c3cccc4cccnc34)cc2)CC1 [Compound 129, N-(4-(4-(6-fluoro-2-methylpyridin-3-yl)-4-hydroxypiperidine-1-carbonyl)phenyl)quinoline-8-sulfonamide]
7 | < 0.1 µM | < 0.1 µM | < 0.1 µM | < 0.1 µM | O=C(c1ccc(NS(=O)(=O)c2cccc3cccnc23)cc1)N1CCC(O)(Cc2ccccc2)CC1 [Compound 131, N-(4-(4-benzyl-4-hydroxypiperidine-1-carbonyl)phenyl)quinoline-8-sulfonamide]
8 | < 0.1 µM | < 0.1 µM | < 0.1 µM | < 0.1 µM | Cc1cc(C(=O)N2CCC(O)(c3ccccc3Cl)CC2)ccc1NS(=O)(=O)c1cccc2cccnc12 [Compound 104, N-(4-(4-(2-chlorophenyl)-4-hydroxypiperidine-1-carbonyl)-2-methylphenyl)quinoline-8-sulfonamide]
9 | 0.101 to 1 µM | 0.101 to 1 µM | 0.101 to 1 µM | 0.101 to 1 µM | Cc1nc(F)ccc1C1(O)CCN(C(=O)c2ccc(NS(=O)(=O)c3ccc(F)c4cccnc34)cc2)CC1 [Compound 229, 5-fluoro-N-(4-(4-(6-fluoro-2-methylpyridin-3-yl)-4-hydroxypiperidine-1-carbonyl)phenyl)quinoline-8-sulfonamide]
10 | < 0.1 µM | < 0.1 µM | < 0.1 µM | < 0.1 µM | Cc1ccccc1C1(O)CCN(C(=O)c2ccc(NS(=O)(=O)c3cccc4cccnc34)cc2)CC1 [Compound 103, N-(4-(4-hydroxy-4-(o-tolyl)piperidine-1-carbonyl)phenyl)quinoline-8-sulfonamide]
11 | 0.101 to 1 µM | < 0.1 µM | 0.101 to 1 µM | < 0.1 µM | CC(C)CC1(O)CCN(C(=O)c2ccc(NS(=O)(=O)c3cccc(O)c3N)cc2)CC1 [Compound 380, 2-amino-3-hydroxy-N-(4-(4-hydroxy-4-isobutylpiperidine-1-carbonyl)phenyl)benzenesulfonamide]
12 | < 0.1 µM | < 0.1 µM | 0.101 to 1 µM | < 0.1 µM | O=C(c1ccc(NS(=O)(=O)c2cccc3cc(F)cnc23)cc1)N1CCC(O)(c2ccccc2)CC1 [Compound 218, 3-fluoro-N-(4-(4-hydroxy-4-phenylpiperidine-1-carbonyl)phenyl)quinoline-8-sulfonamide]
13 | < 0.1 µM | < 0.1 µM | 0.101 to 1 µM | < 0.1 µM | CC(C)CC1(O)CCN(C(=O)c2ccc(NS(=O)(=O)c3cccc4c3OCO4)cc2)CC1 [Compound 423]
